Laboratory results from patent US20230277554A1, “COMPOSITION CONTAINING NICKEL-SUPEROXIDE DISMUTASE AND THE LIKE USEFUL FOR HAIRCARE” (priority 2020, published 2023).

Tested on: Cutibacterium acnes
Assay: Cutibacterium acnes growth inhibition
Assay type: cell-based
Description: Cutibacterium acnes is a troublesome anaerobic pathogen. TUN-828® has the function of forming oxygen internally, so we tried to explore whether such a mechanism can inhibit the growth of Cutibacterium acnes and thereby promote the formation of Staphylococcus epidermidis thus form a micro-ecological environment beneficial to the scalp. […] In 24 hours, TUN-828® can inhibit more than 93% Cutibacterium acnes and more than 99% in 48 hr.

With “Nickel Bis (Hydroxy Diphenyl MethyIPyrrolidino Methy) Pyridinediy1 t-Butylisocyano Perchlorate [TUN-828®]” the “inhibition of Cutibacterium acnes” value (24 hours) was “more than 93%” and the “inhibition of Cutibacterium acnes” value (48 hr) was “more than 99%”.
